From patent US20180117005A1, “COMPOSITIONS FOR THE TREATMENT OF CANCER” (THE GENERAL HOSPITAL CORPORATION, priority 2015, published 2018)

System: tumor that expresses high levels of CXCL12
Assay: Tumor growth in mice with a subcutaneous CXCL12-expressing tumor, AMD3100 followed by cisplatin
Format: in vivo
Description: Mice are injected with tumor cells (subcutaneous injection) from a tumor that expresses high levels of CXCL12 and a tumor allowed to develop. Once the tumor has formed, the mice are injected (subcutaneous in the same flank as the tumor) with AMD3100 or vehicle, once a day for 5 days.
One to three days after the final dose of AMD3100, mice are injected via intraperitoneal injection with a therapeutically effective amount of cisplatin 18 hours prior to assay of tumor growth.

SMILES | Delay in tumor growth, co-treatment versus cisplatin alone (AMD3100 subcutaneous once a day for 5 days, then cisplatin intraperitoneal one to three days after the final dose) | Tumor growth (cisplatin intraperitoneal 18 hours prior to assay, growth resumes soon after treatment is discontinued in mice not administered AMD3100)
c1cc(CN2CCCNCCNCCCNCC2)ccc1CN1CCCNCCNCCCNCC1 [AMD3100] | synergistic effect | –
N.N.[Cl][Pt][Cl] [cisplatin] | – | delayed
